Results from US10023558B2, “Compounds” (CHIESI FARMACEUTICI S.P.A., priority 2016, dated 2018).

molecular target: T1, human neutrophil elastase (HNE) (Homo sapiens, UniProt P08246); experiment: HNE Enzyme Assay (fluorogenic peptide substrate MeOSuc-Ala-Ala-Pro-Val-AMC); format: biochemical; conditions: human leukocyte elastase 0.00072 U/mL, substrate 100 μM, 25° C., 30 minutes, at least two separate experiments; read-out: HNE inhibition (IC50 values)
T1 construct: purchased Sigma E8140
T1 sequence (P08246 30-247 limits assumed): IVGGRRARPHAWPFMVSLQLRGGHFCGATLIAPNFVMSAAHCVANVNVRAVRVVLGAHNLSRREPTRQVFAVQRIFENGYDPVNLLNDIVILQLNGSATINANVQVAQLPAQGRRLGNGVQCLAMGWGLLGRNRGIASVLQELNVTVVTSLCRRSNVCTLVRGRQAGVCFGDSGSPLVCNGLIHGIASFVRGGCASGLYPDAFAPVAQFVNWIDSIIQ
Method in brief: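 Human leukocyte elastase (0.00072 U/mL) with 100 μM MeOSuc-AAPV-AMC in Tris pH 7.5 buffer with NaCl, CaCl2, Brij-35, 1% DMSO, 30 min at 25° C, stopped with soybean trypsin inhibitor. AMC fluorescence (ex 380/em 460 nm); IC50 from concentration-response as % inhibition of control, at least two experiments.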

Row | Structure (SMILES) | IC50
1 | Cc1c(-c2ccnn2-c2ccc(C#N)cc2)n(C(=O)N[C@H]2CC[C@H](C(=O)N(C)CC[N+](C)(C)C)CC2)c(=O)n1-c1cccc(C(F)(F)F)c1 [Example 89, {2-[(Trans-4-{[5-[2-(4-cyano-phenyl)-2H-pyrazol-3-yl]-4-methyl-2-oxo-3-(3-trifluoromethyl-phenyl)-2,3-dihydro-imidazole-1-carbonyl]-amino}-cyclohexanecarbonyl)-methyl-amino]-ethyl}-trimethyl-ammonium benzene sulfonate] | < 1 nM
2 | Cc1c(-c2ccnn2-c2ccc(C#N)cc2)n(C(=O)N[C@@H](C)C(=O)N(C)C2CCN(C)CC2)c(=O)n1-c1cccc(C(F)(F)F)c1 [Example 28, 5-[2-(4-Cyano-phenyl)-2H-pyrazol-3-yl]-4-methyl-2-oxo-3-(3-trifluoromethyl-phenyl)-2,3-dihydro-imidazole-1-carboxylic acid {(S)-1-[methyl-(1-methyl-piperidin-4-yl)-carbamoyl]-ethyl}-amide] | < 1 nM
3 | Cc1c(-c2nccn2-c2ccc(C#N)cc2)n(C(=O)NC2CCN(C(=O)C[N+](C)(C)C)CC2)c(=O)n1-c1cccc(C(F)(F)F)c1 [Example 94, [2-(4-{[1-(4-Cyano-phenyl)-5′-methyl-2′-oxo-1′-(3-trifluoromethyl-phenyl)-1′,2′-dihydro-1H-[2,4′]biimidazolyl-3′-carbonyl]-amino}-piperidin-1-yl)-2-oxo-ethyl]-trimethyl-ammonium benzene sulfonate] | < 1 nM
4 | Cc1c(-c2ccnn2-c2ccc(C#N)cc2)n(C(=O)N[C@@H](C)C(=O)N2CCN(C)CC2)c(=O)n1-c1cccc(C(F)(F)F)c1 [Example 11, 5-[2-(4-Cyano-phenyl)-2H-pyrazol-3-yl]-4-methyl-2-oxo-3-(3-trifluoromethyl-phenyl)-2,3-dihydro-imidazole-1-carboxylic acid [(S)-1-methyl-2-(4-methyl-piperazin-1-yl)-2-oxo-ethyl]-amide] | < 1 nM
5 | Cc1c(-c2ccnn2-c2ccc(C#N)cc2)n(C(=O)NC2CCN(C(=O)CC[N+](C)(C)C)CC2)c(=O)n1-c1cccc(C(F)(F)F)c1 [Example 65, [3-(4-{[5-[2-(4-Cyano-phenyl)-2H-pyrazol-3-yl]-4-methyl-2-oxo-3-(3-trifluoromethyl-phenyl)-2,3-dihydro-imidazole-1-carbonyl]-amino}-piperidin-1-yl)-3-oxo-propyl]-trimethyl-ammonium benzene sulfonate] | < 1 nM
6 | Cc1c(-c2ccnn2-c2ccc(C#N)cc2)n(C(=O)N[C@H]2CCC[C@@H]2OCc2ccccc2)c(=O)n1-c1cccc(C(F)(F)F)c1 [Example 2, 5-[2-(4-Cyano-phenyl)-2H-pyrazol-3-yl]-4-methyl-2-oxo-3-(3-trifluoromethyl-phenyl)-2,3-dihydro-imidazole-1-carboxylic acid ((1S,2S)-2-benzyloxy-cyclopentyl)-amide] | 1 to 10 nM
7 | Cc1c(-c2ccnn2-c2ccc(C#N)cc2)n(C(=O)N[C@H]2CC[C@@H](C(=O)NCC[N+](C)(C)C)CC2)c(=O)n1-c1cccc(C(F)(F)F)c1 [Example 80, {2-[(Cis-4-{[5-[2-(4-cyano-phenyl)-2H-pyrazol-3-yl]-4-methyl-2-oxo-3-(3-trifluoromethyl-phenyl)-2,3-dihydro-imidazole-1-carbonyl]-amino}-cyclohexanecarbonyl)-amino]-ethyl}-trimethyl-ammonium benzene sulfonate] | 1 to 10 nM
8 | Cc1c(-c2ccnn2-c2ccc(C#N)cc2)n(C(=O)N[C@H]2CC[C@H](C[N+](C)(C)C)CC2)c(=O)n1-c1cccc(C(F)(F)F)c1 [Example 29, (Trans-4-{[5-[2-(4-cyano-phenyl)-2H-pyrazol-3-yl]-4-methyl-2-oxo-3-(3-trifluoromethyl-phenyl)-2,3-dihydro-imidazole-1-carbonyl]-amino}-cyclohexylmethyl)-trimethyl-ammonium benzene sulfonate] | < 1 nM
9 | Cc1c(-c2ccnn2-c2ccc(C#N)cc2)n(C(=O)NC2(c3ncc(CN(C)C)o3)CC2)c(=O)n1-c1cccc(C(F)(F)F)c1 [Example 23, 5-[2-(4-Cyano-phenyl)-2H-pyrazol-3-yl]-4-methyl-2-oxo-3-(3-trifluoromethyl-phenyl)-2,3-dihydro-imidazole-1-carboxylic acid [1-(5-dimethylaminomethyl-oxazol-2-yl)-cyclopropyl]-amide] | < 1 nM
10 | Cc1c(-c2ccnn2-c2ccc(C#N)cc2)n(C(=O)N[C@H]2CC[C@@H](C[N+](C)(C)C)CC2)c(=O)n1-c1cccc(C(F)(F)F)c1 [Example 53, (Cis-4-{[5-[2-(4-cyano-phenyl)-2H-pyrazol-3-yl]-4-methyl-2-oxo-3-(3-trifiuoromethyl-phenyl)-2,3-dihydro-imidazole-1-carbonyl]-amino}-cyclohexylmethyl)-trimethyl-ammonium benzene sulfonate] | 1 to 10 nM
11 | Cc1c(-c2ccnn2-c2ccc(C#N)cc2)n(C(=O)NC2CCC3(CC2)CC[N+](C)(C)CC3)c(=O)n1-c1cccc(C(F)(F)F)c1 [Example 66, 9-{[5-[2-(4-Cyano-phenyl)-2H-pyrazol-3-yl]-4-methyl-2-oxo-3-(3-trifluoromethyl-phenyl)-2,3-dihydro-imidazole-1-carbonyl]-amino}-3,3-dimethyl-3-azonia-spiro[5.5]undecane benzene sulfonate] | < 1 nM
12 | Cc1c(-c2ccnn2-c2ccc(C#N)cc2)n(C(=O)NC2CCN(C(=O)OCC[N+](C)(C)C)CC2)c(=O)n1-c1cccc(C(F)(F)F)c1 [Example 93, [2-(4-{[5-[2-(4-Cyano-phenyl)-2H-pyrazol-3-yl]-4-methyl-2-oxo-3-(3-trifluoromethyl-phenyl)-2,3-dihydro-imidazole-1-carbonyl]-amino}-piperidine-1-carbonyloxy)-ethyl]-trimethyl-ammonium benzene sulfonate] | < 1 nM
13 | Cc1c(-c2ccnn2-c2ccc(C#N)cc2)n(C(=O)NC2(C)CCN(C(=O)CN(C)C)CC2)c(=O)n1-c1cccc(C(F)(F)F)c1 [Example 25, 5-[2-(4-Cyano-phenyl)-2H-pyrazol-3-yl]-4-methyl-2-oxo-3-(3-trifluoromethyl-phenyl)-2,3-dihydro-imidazole-1-carboxylic acid [1-(2-dimethylamino-acetyl)-4-methyl-piperidin-4-yl]-amide] | < 1 nM
14 | CC[N+]1(CC)CCC(NC(=O)n2c(-c3ccnn3-c3ccc(C#N)cc3)c(C)n(-c3cccc(C(F)(F)F)c3)c2=O)CC1 [Example 40, 4-{[5-[2-(4-Cyano-phenyl)-2H-pyrazol-3-yl]-4-methyl-2-oxo-3-(3-trifluoromethyl-phenyl)-2,3-dihydro-imidazole-1-carbonyl]-amino}-1,1-diethyl-piperidinium benzene sulfonate] | < 1 nM
15 | Cc1cc(C[N+](C)(C)[C@H]2CC[C@H](NC(=O)n3c(-c4ccnn4-c4ccc(C#N)cc4)c(C)n(-c4cccc(C(F)(F)F)c4)c3=O)CC2)n(C)n1 [Example 76, (4-{[5-[2-(4-Cyano-phenyl)-2H-pyrazol-3-yl]-4-methyl-2-oxo-3-(3-trifluoromethyl-phenyl)-2,3-dihydro-imidazole-1-carbonyl]-amino}-cyclohexyl)-(2,5-dimethyl-2H-pyrazol-3-ylmethyl)-dimethyl-ammonium chloride] | < 1 nM
16 | Cc1c(-c2ccnn2-c2ccc(C#N)cc2)n(C(=O)N[C@H]2CC[C@H](C(=O)NC3CC[N+](C)(C)CC3)CC2)c(=O)n1-c1cccc(C(F)(F)F)c1 [Example 90, 4-[(Trans-4-{[5-[2-(4-cyano-phenyl)-2H-pyrazol-3-yl]-4-methyl-2-oxo-3-(3-trifluoromethyl-phenyl)-2,3-dihydro-imidazole-1-carbonyl]-amino}-cyclohexanecarbonyl)-amino]-1,1-dimethyl-piperidinium benzene sulfonate] | < 1 nM
